# Laboratory results from US20110184188A1, “Insecticidal Benzenedicarboxamide Derivative” (priority 2008, published 2011).
# Test: logP(acid) by reverse phase (C18) chromatography at pH 2.3
# Type: physicochemical
# [1] = reverse phase (C18) chromatography at pH 2.3
# [2] = reverse phase (C18) chromatography, pH 2.3
# [3] = reverse phase (C18) chromatography, pH2.3, 0.1% phosphoric acid / acetonitrile gradient 10-95%
# [4] = reverse phase (C18) chromatography at pH2.3, 0.1% phosphoric acid aqueous solution / acetonitrile, linear gradient 10-95%
# [5] = reverse phase (C18) chromatography at pH2.3, 0.1% phosphoric acid aqueous solution / acetonitrile, linear gradient 10-95% acetonitrile
# [6] = reverse phase (C18) chromatography, pH2.3, 0.1% phosphoric acid aqueous solution / acetonitrile, linear gradient 10-95% acetonitrile
smiles,measurement,setting,value
Cc1nc(Cn2nc(C(F)F)c(Cl)c2C(F)F)ccc1NC(=O)c1cccc(Cl)c1C(=O)NC(C)C[S+](C)[O-] (mixture of isomers) [13-58],logP (acid),[1],2.13
Cc1cc(Cn2nc(C(F)(F)F)cc2C(F)(F)F)ncc1NC(=O)c1cccc(I)c1C(=O)NC(C)C[S+](C)[O-] (mixture of isomers) [13-182],logP (acid),[1],logP (acid) 2.3
Cc1nc(Cn2nc(C(F)(F)C(F)(F)F)cc2C(F)(F)F)ccc1NC(=O)c1cccc(Br)c1C(=O)NC(C)C[S+](C)[O-] (mixture of isomers) [13-188],logP (acid),[1],logP (acid) 2.81
Cc1nc(Cn2nc(C(F)(F)C(F)(F)F)cc2C(F)(F)F)ccc1NC(=O)c1cccc(I)c1C(=O)NC(C)C[S+](C)[O-] (mixture of isomers) [13-190],logP (acid),[1],logP (acid) 2.76
CSCC(C)NC(=O)c1c(Cl)cccc1C(=O)Nc1ccc(Cn2cc(C3=NOC(c4cc(Cl)cc(Cl)c4)(C(F)(F)F)C3)c(C(F)(F)F)n2)cc1C (mixture of isomers) [13-201],logP (acid),[2],logP (acid) 3.43
CSCC(C)NC(=O)c1c(Cl)cccc1C(=O)Nc1ccc(C(O)c2cc(C(F)(F)C(F)(F)F)n[nH]2)cc1C (mixture of isomers) [13-231],logP (acid),[2],logP (acid) 2.76
Cc1nc(Cn2nc(C(F)(F)F)cc2C(F)(F)F)ccc1NC(=O)c1cccc(S(=O)(=O)N(C)C)c1C(=O)NC(C)C[S+](C)[O-] (mixture of isomers) [13-288],logP (acid),[2],logP (acid) 2.37
CSCC(C)NC(=O)c1c(SC)cccc1C(=O)Nc1ccc(C(O)c2cc(C(F)(F)C(F)(F)F)n[nH]2)cc1C (mixture of isomers) [13-340],logP (acid),[2],logP (acid) 2.77
CSCC(C)NC(=O)c1c(C(=O)Nc2ccc(C(O)c3cc(C(F)(F)C(F)(F)F)n[nH]3)cc2C)cccc1S(C)(=O)=O (mixture of isomers) [13-341],logP (acid),[2],logP (acid) 2.02
CNC(=O)c1cc(Cl)cc(Cl)c1C(=O)Nc1cc(Cl)ccc1Cn1nc(C(F)(F)F)nc1C(F)(F)F [3-2],logP (acid),[3],logP (acid) 3.84
CSC[C@H](C)NC(=O)c1c(Cl)cccc1C(=O)Nc1cc(F)c(C)nc1Cn1nc(C(F)(F)F)cc1C(F)(F)F [3-7],logP (acid),[3],logP (acid) 4.28
CSC[C@H](C)NC(=O)c1c(Cl)cccc1C(=O)Nc1cc(F)c(C)cc1Cn1nc(C(F)(F)F)nc1C(F)(F)F [3-8],logP (acid),[3],logP (acid) 4.13
CNC(=O)c1cc(Cl)cc(Cl)c1C(=O)Nc1cc(Cl)cc(Cn2nc(C(F)(F)F)nc2C(F)(F)F)c1 [4-1],logP (acid),[4],logP (acid) 3.32
CSC[C@H](C)NC(=O)c1c(Cl)cccc1C(=O)Nc1cccc(Cn2cc(C(F)(F)C(F)(F)F)c(C(F)(F)C(F)(F)F)n2)c1C [4-6],logP (acid),[4],logP (acid) 4.52
CSC[C@H](C)NC(=O)c1c(Cl)cccc1C(=O)Nc1cccc(Cn2nc(C(F)(F)C(F)(F)F)nc2-c2ccc(Cl)cc2)c1C [4-9],logP (acid),[4],logP (acid) 4.32
CSC[C@H](C)NC(=O)c1c(Cl)cccc1C(=O)Nc1cccc(Cn2nc(C(F)(F)C(F)(F)F)nc2-c2ccc(C(F)(F)F)cc2)c1C [4-10],logP (acid),[4],logP (acid) 4.44
CSC[C@H](C)NC(=O)c1c(Cl)cccc1C(=O)Nc1cccc(Cn2nc(C(F)(F)C(F)(F)F)nc2-c2ccc(Cl)nc2)c1C [4-11],logP (acid),[4],logP (acid) 3.8
CSC[C@H](C)NC(=O)c1c(Cl)cccc1C(=O)Nc1cccc(Cn2nnc(-c3ccc(C(F)(F)F)cc3)n2)c1 [4-16],logP (acid),[4],logP (acid) 3.86
Cc1cc(Cn2nc(C(F)(F)F)nc2C(F)(F)F)c(F)cc1NC(=O)c1cccc(Cl)c1C(=O)N[C@@H](C)C[S+](C)[O-] (stereo partly drawn) [7-8],logP (acid),[5],logP (acid) 2.63
Cc1cc(Cn2nc(C(F)(F)F)nc2C(F)(F)F)c(F)cc1NC(=O)c1cccc(Cl)c1C(=O)N[C@@H](C)CS(C)(=O)=O [7-9],logP (acid),[5],logP (acid) 3.02
CSC[C@H](C)NC(=O)c1c(Br)cccc1C(=O)Nc1cc(F)c(Cn2nc(C(F)(F)F)cc2C(F)(F)F)cc1C [7-10],logP (acid),[5],logP (acid) 4.37
CSC[C@H](C)NC(=O)c1c(Br)cccc1C(=O)Nc1cc(F)c(Cn2nc(C(F)(F)F)nc2C(F)(F)F)cc1C [7-13],logP (acid),[5],logP (acid) 4.07
Cc1cc(Cn2nc(C(F)(F)F)nc2C(F)(F)F)c(F)cc1NC(=O)c1cccc(Br)c1C(=O)N[C@@H](C)C[S+](C)[O-] (stereo partly drawn) [7-14],logP (acid),[5],logP (acid) 2.68
Cc1cc(Cn2nc(C(F)(F)F)nc2C(F)(F)F)c(F)cc1NC(=O)c1cccc(Br)c1C(=O)N[C@@H](C)CS(C)(=O)=O [7-15],logP (acid),[5],logP (acid) 3.08
CSC[C@H](C)NC(=O)c1c(SC)cccc1C(=O)Nc1cc(F)c(Cn2nc(C(F)(F)F)nc2C(F)(F)F)cc1C [7-23],logP (acid),[5],logP (acid) 3.96
CSC[C@H](C)NC(=O)c1c(Cl)cccc1C(=O)Nc1cc(F)c(Cn2nc(C(F)(F)F)cc2C(F)(F)F)nc1C [7-150],logP (acid),"reverse phase (C18) chromatography at pH2.3, 0.1% phosphoric acid aqueous solution / acetonitrile gradient",logP (acid) 4.13
Cc1nc(Cn2nc(C(F)(F)F)cc2C(F)(F)F)ccc1NC(=O)c1ccc(F)c(Br)c1C(=O)N[C@@H](C)C[S+](C)[O-] (stereo partly drawn) [9-11],logP (acid),[6],logP (acid) 2.51
CSC[C@H](C)NC(=O)c1c(C(=O)Nc2ccc(Cn3nc(C(F)(F)C(F)(F)F)nc3C(F)(F)F)cc2C)ccc(F)c1Br [9-12],logP (acid),[6],logP (acid) 4.29
Cc1cc(Cn2nc(C(F)(F)C(F)(F)F)nc2C(F)(F)F)ccc1NC(=O)c1ccc(F)c(Br)c1C(=O)N[C@@H](C)C[S+](C)[O-] (stereo partly drawn) [9-13],logP (acid),[6],logP (acid) 2.96
CSC[C@H](C)NC(=O)c1c(C(=O)Nc2ccc(Cn3nc(C(F)(F)F)cc3C(F)(F)F)cc2C)ccc(C(F)(F)F)c1Cl [9-14],logP (acid),[6],logP (acid) 4.62
CSC[C@H](C)NC(=O)c1c(C(=O)Nc2ccc(Cn3nc(C(F)(F)C(F)(F)F)nc3C(F)(F)F)cc2C)ccc([N+](=O)[O-])c1Cl [9-15],logP (acid),[6],logP (acid) 4.27
Cc1cc(Cn2nc(C(F)(F)F)cc2C(F)(F)F)ccc1NC(=O)c1ccc(C(F)(F)F)c(Cl)c1C(=O)N[C@@H](C)CS(C)(=O)=O [9-17],logP (acid),[6],logP (acid) 3.22
CSC[C@H](C)NC(=O)c1c(C(=O)Nc2ccc(Cn3nc(C(F)(F)F)nc3C(F)(F)F)cc2C)ccc(C(F)(F)F)c1Cl [9-18],logP (acid),[6],logP (acid) 4.30
Cc1cc(Cn2nc(C(F)(F)F)nc2C(F)(F)F)ccc1NC(=O)c1ccc(C(F)(F)F)c(Cl)c1C(=O)N[C@@H](C)C[S+](C)[O-] (stereo partly drawn) [9-19],logP (acid),[6],logP (acid) 2.98
Cc1nc(Cn2nc(C(F)(F)F)cc2C(F)(F)F)ccc1NC(=O)c1ccc(F)c(Br)c1C(=O)N[C@@H](C)CS(C)(=O)=O [9-21],logP (acid),[6],logP (acid) 3.27
Cc1cc(Cn2nc(C(F)(F)C(F)(F)F)nc2C(F)(F)F)ccc1NC(=O)c1ccc(F)c(Br)c1C(=O)N[C@@H](C)CS(C)(=O)=O [9-22],logP (acid),[6],logP (acid) 3.36
CSC[C@H](C)NC(=O)c1c(C(=O)Nc2ccc(Cn3nc(C(F)(F)C(F)(F)F)nc3C(F)(F)F)cc2C)ccc(C(F)(F)F)c1Cl [9-23],logP (acid),[6],logP (acid) 4.63
Cc1cc(Cn2nc(C(F)(F)C(F)(F)F)nc2C(F)(F)F)ccc1NC(=O)c1ccc(C(F)(F)F)c(Cl)c1C(=O)N[C@@H](C)CS(C)(=O)=O [9-25],logP (acid),[6],logP (acid) 3.70
CSC[C@H](C)NC(=O)c1c(C(=O)Nc2ccc(Cn3nc(C(F)(F)F)cc3C(F)(F)F)nc2C)ccc(C(F)(F)F)c1Cl [9-26],logP (acid),[6],logP (acid) 4.25
CSC[C@H](C)NC(=O)c1c(Cl)cc(Cl)cc1C(=O)Nc1ccc(Cn2nc(C(F)(F)F)cc2C(F)(F)F)nc1C [10-1],logP (acid),[1],logP (acid) 4.18
Cc1nc(Cn2nc(C(F)(F)F)cc2C(F)(F)F)ccc1NC(=O)c1cc(Cl)cc(Cl)c1C(=O)N[C@@H](C)C[S+](C)[O-] (stereo partly drawn) [10-2],logP (acid),[1],logP (acid) 2.83
CSC[C@H](C)NC(=O)c1c(Cl)cc(Cl)cc1C(=O)Nc1ccc(Cn2nc(C(F)(F)C(F)(F)F)nc2C(F)(F)F)cc1C [10-10],logP (acid),[1],logP (acid) 4.64
Cc1cc(Cn2nc(C(F)(F)C(F)(F)F)nc2C(F)(F)F)ccc1NC(=O)c1cc(Cl)cc(Cl)c1C(=O)N[C@@H](C)C[S+](C)[O-] (stereo partly drawn) [10-11],logP (acid),[1],logP (acid) 3.28
Cc1cc(Cn2nc(C(F)(F)C(F)(F)F)nc2C(F)(F)F)ccc1NC(=O)c1cc(Cl)cc(Cl)c1C(=O)N[C@@H](C)CS(C)(=O)=O [10-12],logP (acid),[1],logP (acid) 3.61
Cc1cc(Cn2nc(C(F)(F)C(F)(F)F)nc2C(F)(F)F)ccc1NC(=O)c1cc(F)cc(Cl)c1C(=O)N[C@@H](C)C[S+](C)[O-] (stereo partly drawn) [10-14],logP (acid),[1],logP (acid) 3.00
Cc1cc(Cn2nc(C(F)(F)C(F)(F)F)nc2C(F)(F)F)ccc1NC(=O)c1cc(F)cc(Cl)c1C(=O)N[C@@H](C)CS(C)(=O)=O [10-15],logP (acid),[1],logP (acid) 3.37
CSC[C@H](C)NC(=O)c1c(I)ccc(F)c1C(=O)Nc1ccc(Cn2nc(C(F)(F)F)cc2C(F)(F)F)nc1C [11-1],logP (acid),[1],logP (acid) 3.72
CSCC(C)NC(=O)c1c(Cl)ccc(Cl)c1C(=O)Nc1ccc(Cn2nc(C(F)(F)F)cc2C(F)(F)F)nc1C (stereo not drawn) [11-4],logP (acid),[1],logP (acid) 4.14
Cc1nc(Cn2nc(C(F)(F)F)cc2C(F)(F)F)ccc1NC(=O)c1c(Cl)ccc(Cl)c1C(=O)N[C@@H](C)C[S+](C)[O-] (stereo partly drawn) [11-5],logP (acid),[1],logP (acid) 2.65
Cc1nc(Cn2nc(C(F)(F)F)cc2C(F)(F)F)ccc1NC(=O)c1c(Cl)ccc(Cl)c1C(=O)N[C@@H](C)CS(C)(=O)=O [11-6],logP (acid),[1],logP (acid) 3.05
CSC[C@H](C)NC(=O)c1c(Cl)ccc(Br)c1C(=O)Nc1ccc(Cn2nc(C(F)(F)F)cc2C(F)(F)F)nc1C [11-13],logP (acid),[1],logP (acid) 3.89
Cc1nc(Cn2nc(C(F)(F)F)cc2C(F)(F)F)ccc1NC(=O)c1c(Br)ccc(Cl)c1C(=O)N[C@@H](C)C[S+](C)[O-] (stereo partly drawn) [11-14],logP (acid),[1],logP (acid) 2.68
Cc1nc(Cn2nc(C(F)(F)F)cc2C(F)(F)F)ccc1NC(=O)c1c(Br)ccc(Cl)c1C(=O)N[C@@H](C)CS(C)(=O)=O [11-15],logP (acid),[1],logP (acid) 3.05
COc1ccc(Br)c(C(=O)Nc2ccc(Cn3nc(C(F)(F)F)cc3C(F)(F)F)nc2C)c1C(=O)N[C@@H](C)CSC [11-16],logP (acid),[1],logP (acid) 3.63
